Assay results taken from US8940788B2, “Anti-angiogenic composition containing macrolactin A and a derivative thereof as active ingredients” (Daewoo Pharmaceutical Ind. Co., Ltd., priority 2010, dated 2015).

Legend:
[1] = test system: chorioallantoic membrane (CAM) neovascular formation induced by IL-8; assay: CAM analysis of suppressive effect on angiogenesis, neovascular formation induced by IL-8; assay type: in vivo, chicken; conditions: IL-8 20 ng/CAM; various concentrations of compound; three days after treatment
Procedure: (§1) In order to confirm an anti-angiogenic effect of the macrolactin compounds in in vivo test, chorioallantoic membrane (CAM) analysis was carried out (Nguyen M. et al., Microvascular Res., 47, pp. 31-40, 1994). 6±1 fertile eggs were used per group.
(§2) Fertile chicken eggs were cultured while maintaining the temperature of 37° C. and the relative humidity of 55%. On the third day of culture, a first small hole was made in the air sac part with a hypodermic needle (Green Cross Medical Corporation, Korea), and a second hole was made in the plat part of the fertile eggs to make a window.
(§3) The CAM was separated from the eggshell by expelling the air through the first hole in the air sac, and then the part was cut with a grinding wheel (Multipro 395JA, Dremel, Mexico) to make a window.
(§4) A Whatman filter disc #1 (Whatman, USA) was treated with 3 mg/ml of cortisone acetate and dried. The filter disc was treated with 10 μl of VEGF, TNF-α or IL-8 (20 ng/CAM).
(§5) Through the pre-made window, the filter disc was put on blood vessel, and then treated with various concentrations of MA, MMA or SMA which was dissolved in DMSO and diluted with PBS.
(§6) Three days after treatment, the CAM part with the filter disc was separated and washed with phosphate buffer solution. […]

[2] = test system: chorioallantoic membrane (CAM) neovascular formation induced by VEGF; assay: CAM analysis of suppressive effect on angiogenesis, neovascular formation induced by VEGF; assay type: in vivo, chicken; conditions: VEGF 20 ng/CAM; for suppression of neovascular formation caused by VEGF (number of blood vessel branches): various concentrations of compound, three days after treatment
Procedure: as §1, §2, §3, §4, §5
Three days after treatment, the CAM part with the filter disc was separated and washed with phosphate buffer solution. The photographs were taken by using a stereomicroscope (Leica, Wetzlar, Germany) and Image-Pro Plus software (Media Cybernetics; Silver Spring, Md., USA) to determine the number of bleed vessel branches and to analyze the data.
All data were represented as mean±standard error of mean, and the statistical analysis was done as one-way ANOVA by using GraphPad Prism 4 Software (San Diego, Calif., USA). Multiple comparisons between the differences of each group were made by using the NK (Newman-Keuls) method. When p-value was less than 0.05, the data were regarded as statistically significant.

[3] = test system: chorioallantoic membrane (CAM) neovascular formation induced by TNF-α; assay: CAM analysis of suppressive effect on angiogenesis, neovascular formation induced by TNF-α; assay type: in vivo, chicken; conditions: TNF-α 20 ng/CAM; various concentrations of compound; three days after treatment
Procedure: as §1, §2, §3, §4, §5, §6

[4] = test system: Human fibrosarcoma cells (HT-1080); assay: Infiltration test of fibrosarcoma cells (suppressive effect on metastasis of cancer), transwell with Matrigel; assay type: cell-based; conditions: 18 hours
Procedure: Human fibrosarcoma cells (HT-1080) were cultured in DMEM containing 10% fetal bovine serum (FBS) and 1% penicillin/streptomycin (PS) under the condition of 37° C. and 5% CO2. When the cells grew to fill 80% or more of the culture flask, they were subcultured at a ratio of 1:3 and used in this test. In order to confirm the suppressive effect of the macrolactin compounds on metastasis of cancer in in vitro experiments, an infiltration test of fibrosarcoma cells was carried out by using a 24-well transwell attached with a polycarbonate filter of […] pore size. Firstly, the bottom side of the filter was coated with Collagen Type I (0.5 mg/ml), and then the upper side of the filter was coated with Matrigel (1.5 mg/ml). After coating, the lower part of the insert was filled with a medium containing 5% FBS, and the upper part was filled with serum-free medium human fibrosarcoma cells (HT-1080) which were incubated for 18 hours in a cell incubator. The human fibrosarcoma cells infiltrated into the bottom side of the filter were fixed with methanol and then dyed with hematoxylin and eosin. The infiltrated cells were observed under a microscope, and 3 parts were randomly selected from each filter to take photographs and determine the number of cells (Kim, M. S. et al., Cancer Res., 63, pp. 5454-5461, 2003; Park, B. C. et al., Eur. J. Pharm., 567, pp. 193-197, 2007).

SMILES | suppression of neovascular formation caused by IL-8 (number of blood vessel branches) [1] | suppression of neovascular formation caused by VEGF (number of blood vessel branches) [2] | suppression of neovascular formation caused by TNF-α (number of blood vessel branches) [3] | dose dependence of suppression of metastasis (infiltration) of fibrosarcoma cells induced by 5% FBS [4] | dose dependence of suppression of neovascular formation caused by VEGF ([2]; various concentrations) | suppressive effect on metastasis (infiltration) of fibrosarcoma cells induced by 5% FBS ([4]; compound 1 μM) | suppressive effect on metastasis (infiltration) of fibrosarcoma cells induced by 5% FBS ([4]; compound 5 μM)
CC1CCC/C=C/C=C/[C@H](O)C[C@@H](O)C/C=C\C=C\[C@@H](O)C/C=C/C=C\C(=O)O1 (stereo partly drawn) [MA, macrolactin A] | strongly suppressed | strongly suppressed | strongly suppressed | in a dose-dependent way |  |  | 
C[C@@H]1CCC/C=C/C=C/[C@H](O)C[C@@H](O)C/C=C\C=C\[C@@H](OC(=O)CC(=O)O)C/C=C/C=C\C(=O)O1 [MMA, 7-O-malonyl macrolactin A] |  | strongly suppressed |  |  |  |  | 
C[C@@H]1CCC/C=C/C=C/[C@H](O)C[C@@H](O)C/C=C\C=C\[C@@H](OC(=O)CCC(=O)O)C/C=C/C=C\C(=O)O1 [SMA, 7-O-succinyl macrolactin A] | strongly suppressed | strongly suppressed | strongly suppressed | in a dose-dependent way | suppressed neovascular formation in a dose-dependent way | significant suppressive effect | superior suppressive effect on the metastasis comparable to that of batimastat
